Measured values published in ChEMBL document CHEMBL1201862, “PubChem BioAssay data set” (2004).
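Dose response: 5 concentrations. Exposure: 48 h. Format: 96-well plates. Endpoint: linear interpolation; highest concentration if not reached. The concentration for 50% growth inhibition is given as GI50.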 The source made the active and inactive calls. Cut-off read from the data, not from the text of the source: active = GI50 up to about 1.1 µM and inactive = higher.

How the values were obtained:
Experiment in all cases: growth of human tumour cells (NCI), 48 h
[1] = system: RPMI-8226
[2] = system: OVCAR-5
[3] = system: SNB-19
[4] = system: EKVX
[5] = system: HOP-92
[6] = system: A498
[7] = system: OVCAR-3
[8] = system: K562
[9] = system: SK-MEL-28
[10] = system: Malme-3M
[11] = system: SN12C
[12] = system: SF-295
[13] = system: IGROV-1
[14] = system: LOX IMVI
[15] = system: OVCAR-8
[16] = system: COLO 205
[17] = system: SR

Structure (SMILES)	GI50 [1]	GI50 [2]	GI50 [3]	GI50 [4]	GI50 [5]	GI50 [6]	GI50 [7]	GI50 [8]	GI50 [9]	GI50 [10]	GI50 [11]	GI50 [12]	GI50 [13]	GI50 [14]	GI50 [15]	GI50 [16]	GI50 [17]
Cc1ncc(CCl)c2c1OC(C)(C)OC2	37.2 µM (inactive)	22.3 µM (inactive)	63.8 µM (inactive)	20.5 µM (inactive)	32.2 µM (inactive)	> 100 µM (inactive)	26.1 µM (inactive)	41.2 µM (inactive)	24 µM (inactive)	19.2 µM (inactive)	35.6 µM (inactive)	> 100 µM (inactive)	> 100 µM (inactive)	17.3 µM (inactive)	67.1 µM (inactive)	–	–
COc1ccc(C(=O)c2c(C(C(=O)c3ccc(OC)cc3)C(=O)c3ccc(OC)cc3)n(C(=O)c3ccc(OC)cc3)c3ccccc23)cc1	> 100 µM (inactive)	> 100 µM (inactive)	> 100 µM (inactive)	> 100 µM (inactive)	> 100 µM (inactive)	> 100 µM (inactive)	> 100 µM (inactive)	> 100 µM (inactive)	> 100 µM (inactive)	> 100 µM (inactive)	> 100 µM (inactive)	> 100 µM (inactive)	> 100 µM (inactive)	> 100 µM (inactive)	> 100 µM (inactive)	> 100 µM (inactive)	> 100 µM (inactive)
CC(C)=CCC/C(C)=C/Cc1c(O)ccc2c1[nH]c1cc(O)c(C)cc12	17.8 µM (inactive)	> 25 µM (inactive)	9.46 µM (inactive)	–	> 25 µM (inactive)	–	5.73 µM (inactive)	9.38 µM (inactive)	> 25 µM (inactive)	13.6 µM (inactive)	14.6 µM (inactive)	–	14.7 µM (inactive)	8.36 µM (inactive)	9.46 µM (inactive)	> 25 µM (inactive)	8.13 µM (inactive)
Cc1cc(NS(=O)(=O)c2ccc(NC(=O)c3cccn4c(=O)c5ccccc5nc34)cc2)no1	> 100 µM (inactive)	–	> 100 µM (inactive)	> 100 µM (inactive)	> 100 µM (inactive)	> 100 µM (inactive)	> 100 µM (inactive)	> 100 µM (inactive)	> 100 µM (inactive)	> 100 µM (inactive)	> 100 µM (inactive)	> 100 µM (inactive)	> 100 µM (inactive)	> 100 µM (inactive)	> 100 µM (inactive)	> 100 µM (inactive)	> 100 µM (inactive)
Cc1nc(Nc2ccc(Cl)cc2)sc1C(=O)NNc1ccc([N+](=O)[O-])cc1[N+](=O)[O-]	18.2 µM (inactive)	16.3 µM (inactive)	16.7 µM (inactive)	14.9 µM (inactive)	23.6 µM (inactive)	15.9 µM (inactive)	19.3 µM (inactive)	16.8 µM (inactive)	19.9 µM (inactive)	20.7 µM (inactive)	17.7 µM (inactive)	18.1 µM (inactive)	20.9 µM (inactive)	15.1 µM (inactive)	21.4 µM (inactive)	19.8 µM (inactive)	–
COc1cc(O)c(C(=O)C2Cc3ccccc32)c(OC)c1 (configuration not stated)	16.8 µM (inactive)	35.7 µM (inactive)	> 100 µM (inactive)	–	35.9 µM (inactive)	30 µM (inactive)	–	32.7 µM (inactive)	–	35.8 µM (inactive)	46.5 µM (inactive)	86.1 µM (inactive)	> 100 µM (inactive)	51.4 µM (inactive)	48.3 µM (inactive)	> 100 µM (inactive)	–
CC/C=C/c1cc2c(c3[nH]ccc13)[C@@H](C)CC2C.CC/C=C/c1cc2cc[nH]c2c2c1C(C)C[C@@H]2C.CCc1cc2c(c3[nH]ccc13)[C@@H](C)CC2C (some centres not stated)	–	19.9 µM (inactive)	19.2 µM (inactive)	18.4 µM (inactive)	–	–	–	–	15.7 µM (inactive)	20.2 µM (inactive)	15.1 µM (inactive)	16.6 µM (inactive)	–	15.6 µM (inactive)	17.2 µM (inactive)	20.9 µM (inactive)	–
CCOC(=O)C(C)Sc1nnc(COc2ccccc2OC)n1-c1ccccc1 (configuration not stated)	23.9 µM (inactive)	> 100 µM (inactive)	> 100 µM (inactive)	> 100 µM (inactive)	49.1 µM (inactive)	0.268 µM (active)	> 100 µM (inactive)	30.1 µM (inactive)	> 100 µM (inactive)	> 100 µM (inactive)	> 100 µM (inactive)	> 100 µM (inactive)	> 100 µM (inactive)	15.7 µM (inactive)	> 100 µM (inactive)	> 100 µM (inactive)	–
Nn1c(-c2ccccc2Cl)nc2ccccc2c1=O	> 100 µM (inactive)	> 100 µM (inactive)	> 100 µM (inactive)	> 100 µM (inactive)	> 100 µM (inactive)	> 100 µM (inactive)	> 100 µM (inactive)	> 100 µM (inactive)	> 100 µM (inactive)	83.8 µM (inactive)	> 100 µM (inactive)	> 100 µM (inactive)	> 100 µM (inactive)	–	> 100 µM (inactive)	> 100 µM (inactive)	–
